The target in one assay is T1, COX-1 (Homo sapiens, UniProt P23219).
T1 construct: from tissue; host or cells: fresh heparinized human whole blood from healthy volunteers
Put plainly: COX-1 activity in human whole blood (TXB2, calcium ionophore A23187). In kind it is cell-based. Conditions: 24 h at 37° C., A23187 25 μM, TXB2 by ELISA. As to the method: (§1) COX-1 and COX-2 Activities in Human Whole Blood
Fresh blood from healthy volunteers who had not taken any non-steroidal anti-inflammatory drugs for at least 7 days prior to blood extraction was collected in heparinized tubes (20 units of heparin per ml). For the COX-1 activity determination, 500 μl aliquots of blood were incubated with either 5 μl vehicle (dimethylsulphoxide) or 5 μl of a test compound solution for 24 h at 37° C. Calcium ionophore A23187 (25 μM) was added 20 min before the incubation was ended. Plasma was separated by centrifugation (10 min at 13000 rpm) and kept at −30° C. until TXB2 levels were measured using an enzyme immunoassay kit (ELISA).
The effect of the compounds was evaluated by incubating each compound at five to six different concentrations with triplicate determinations. IC50 values were obtained by non-linear regression using InPlot, GraphPad software on an IBM computer.
A general note: ELISA stands for enzyme-linked immunosorbent assay.

In a further assay the target is T2, COX-2 (Homo sapiens, UniProt P35354).
T2 construct: blood were incubated in the presence of LPS (10 μg/ml) for 24 h at 37° C. in order to induce the COX-2 expression; from tissue; host or cells: fresh heparinized human whole blood from healthy volunteers, LPS-stimulated
T2 sequence (P35354 18-604): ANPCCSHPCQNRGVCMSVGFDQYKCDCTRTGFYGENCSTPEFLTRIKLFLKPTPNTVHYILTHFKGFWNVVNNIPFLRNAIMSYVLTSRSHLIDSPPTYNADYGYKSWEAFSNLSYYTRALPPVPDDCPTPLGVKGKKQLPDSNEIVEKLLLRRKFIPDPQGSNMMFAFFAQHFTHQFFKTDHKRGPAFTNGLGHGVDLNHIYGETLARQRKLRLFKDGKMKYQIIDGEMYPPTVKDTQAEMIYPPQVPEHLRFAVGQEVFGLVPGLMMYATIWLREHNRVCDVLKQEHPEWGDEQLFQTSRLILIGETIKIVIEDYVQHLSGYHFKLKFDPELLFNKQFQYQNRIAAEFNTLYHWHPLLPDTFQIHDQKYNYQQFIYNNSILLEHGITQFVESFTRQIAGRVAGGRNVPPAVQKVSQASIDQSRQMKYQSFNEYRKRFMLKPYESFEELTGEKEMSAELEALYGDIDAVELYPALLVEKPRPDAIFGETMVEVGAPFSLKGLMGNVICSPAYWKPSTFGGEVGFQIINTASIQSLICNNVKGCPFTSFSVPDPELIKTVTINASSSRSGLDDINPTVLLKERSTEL
Put plainly: COX-2 activity in human whole blood (PGE2, LPS-induced). The class given is cell-based. Conditions: for pIC50: human whole blood, LPS 10 μg/ml, 24 h at 37° C., PGE2 by ELISA; for Ratio COX-1/COX-2: ratio of human whole blood IC50 values. How it is done: as §1
For the COX-2 activity determination, 500 μl aliquots of blood were incubated in the presence of LPS (10 μg/ml) for 24 h at 37° C. in order to induce the COX-2 expression (Patriagnani et al., J. Pharm. Exper. Ther. 271; 1705-1712 (1994)). Plasma was separated by centrifugation (10 min at 13000 rpm) and kept at −30° C. until PGE2 levels were measured using an enzyme immunoassay kit (ELISA). The effects of inhibitors were studied by incubating each compound (5 μl aliquots) at five to six different concentrations with triplicate determinations in the presence of LPS for 24 hours. IC50 values were obtained by non-linear regression using InPlot, GraphPad software on an IBM computer.

The values below come from patent publication US20060189684A1, “3-Phenylfuran-2-one derivatives as cox-2 inhibitor” (priority 2003, published 2006).

pIC50: −log10 of the molar value.

T1 sequence (P23219 24-599): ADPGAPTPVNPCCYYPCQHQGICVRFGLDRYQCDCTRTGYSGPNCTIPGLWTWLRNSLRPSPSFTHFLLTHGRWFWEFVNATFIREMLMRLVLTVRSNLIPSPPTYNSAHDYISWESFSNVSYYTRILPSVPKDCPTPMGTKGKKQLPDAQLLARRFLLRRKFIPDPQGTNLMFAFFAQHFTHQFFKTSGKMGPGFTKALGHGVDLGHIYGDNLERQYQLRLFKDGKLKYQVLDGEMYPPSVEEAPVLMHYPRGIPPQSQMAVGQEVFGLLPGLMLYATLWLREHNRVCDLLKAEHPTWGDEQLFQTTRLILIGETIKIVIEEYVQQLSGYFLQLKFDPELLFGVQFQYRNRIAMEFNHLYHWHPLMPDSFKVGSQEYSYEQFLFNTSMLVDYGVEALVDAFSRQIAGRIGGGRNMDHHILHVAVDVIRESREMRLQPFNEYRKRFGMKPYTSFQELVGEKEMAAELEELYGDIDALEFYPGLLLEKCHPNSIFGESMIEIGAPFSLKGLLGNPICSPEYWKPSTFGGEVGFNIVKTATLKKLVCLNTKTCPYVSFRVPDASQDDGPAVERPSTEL

Turning to `C[S+]([O-])c1ccc(C2=C(c3ccccc3)C(=O)OC2)cc1` (racemic) [4-[4(methylsulfinyl)phenyl]-3-phenylfuran-2(5H)-one (racemate), 4-[4-(Methylsulfinyl)phenyl)-3-phenylfuran-2(6H)-one], the pIC50 (as a rule, −log10 of the IC50, conventionally taken in molar units) on COX-1 was 4.48.

Consider `C[S@@+]([O-])c1ccc(C2=C(c3ccccc3)C(=O)OC2)cc1` [4-[4(methylsulfinyl)phenyl]-3-phenylfuran-2(5H)-one (Enantiomer 1a)], for which the pIC50 at COX-1 is 4.49. Moreover, on COX-2, the pIC50 was 5.37 and the “Ratio COX-1/COX-2” value worked out at 7.6.

With `C[S@+]([O-])c1ccc(C2=C(c3ccccc3)C(=O)OC2)cc1` [4-[4(methylsulfinyl)phenyl]-3-phenylfuran-2(5H)-one (Enantiomer 1b)], the pIC50 on COX-1 was 4.42. In addition, at COX-2, the pIC50 was 5.68 and the “Ratio COX-1/COX-2” value is 18.
